Results on two compounds are retold here after patent US9539272B2, “HDAC 6 inhibitor-based methods for treating cancer” (SLOAN-KETTERING INSTITUTE FOR CANCER RESEARCH, priority 2009, dated 2017).

Experiment [1] relates to LNCaP HDAC 6 knockdown cells. The experiment is described as follows: Cell viability, LNCaP HDAC 6 knockdown cells. Format: cell-based, human. Particulars: LNCaP HDAC 6 knockdown, 72 hrs. The source says: shRNA lentiviral particles targeting different regions of HDAC6 mRNA, HDAC6 KD1 (HDAC6 knockdown 1) at 1.7×10^7 TU/ml and HDAC6 KD2 (HDAC6 knockdown 2) at 1.9×10^7 TU/ml, and a non-targeting ‘scramble’ shRNA control particles (#SHC002V) at 1.1×10^7 TU/ml, were purchased from Sigma-Aldrich and transfected according to the manufacturer's instructions using polybrene (Millipore). The 21-nucleotide sequence corresponding to HDAC6 mRNA for HDAC6 KD1 is 5′-[…]-3′ and for HDAC6 KD2 is 5′-[…]-3′. For each shRNA, 5×10^5 cells were infected at an MOT of 2.

The test system of the next experiment is γH2AX. The experiment is described as follows: Accumulation of γH2AX in LNCaP cells (Western blot, ImageJ quantitation). Format: cell-based, human. To be noted: 24 h.
The subject of experiment [2] is LNCaP cells. The experiment can be described thus: Microarray analysis of gene expression in LNCaP cells. The arrangement: Total gene number: dose or concentration left out as unconfirmed. The experiment is classed as cell-based, human. On the procedure: Alterations in gene expression were evaluated by microarray using the Illumina human cDNA array containing cDNA probes representing the whole genome (10000 genes). […] Triplicate samples were prepared for each drug treatment at each time point. Poly(A)+ mRNA was isolated from cells using Trizol reagent according to manufacturer's protocol (Invitrogen). The data was analyzed using the Bioconductor packages (www.bioconductor.com) for the R statistical system. The output from Beadstudio was processed using the LUMI package. The normalization method used was quantile and the signal levels were log (base 2) transformed. To determine genes that are differentially expressed between the various sample types, the LIMMA package was used.

A further experiment relates to MCF-7 cells. The experiment is described as follows: Cell growth and viability by trypan blue exclusion, MCF-7. Particulars: MCF-7, 72 hrs; 8 μM tubacin, 5 μM SAHA, […] doxorubicin, 100 μM etoposide, alone or plus 8 μM tubacin. The experiment is classed as cell-based, human.
The test system of experiment [3] is LNCaP cells. The experiment can be described thus: Cell cycle analysis by flow cytometry, LNCaP. Format: cell-based, human. To be noted: 24 h, propidium iodide. On the procedure: Cells were harvested at 24 h culture with the indicated drugs, washed with PBS and fixed in methanol. Cells were then resuspended in a buffer containing […] propidium iodide and […] RNase A. Samples were analysed by flow cytometry using a Becton Dickinson FACSCalibur flow cytometer. Data were collected for 10,000 events and analyzed using FlowJo software.

The next experiment concerns PARP. The experiment can be described thus: PARP cleavage in LNCaP cells (Western blot). To be noted: 48 h.
A further experiment deals with phospho-Chk2. The experiment can be described thus: Accumulation of phospho-Chk2 in LNCaP cells (Western blot). Particulars: 24 h. The experiment is classed as cell-based, human.
The test system of experiment [4] is acetylated α-tubulin and acetylated histone H3 in LNCaP cells. The experiment is described as follows: Accumulation of acetylated α-tubulin and acetylated histone H3 in LNCaP cells (Western blot). Format: cell-based, human. Particulars: BAHA 1.0 or 1.5 μM, SAHA 1.5 and 2.0 μM. The protocol: 2×10^6 transformed cells were cultured for 24 hrs in a 10 cm tissue culture dish with 10 ml RPMI 1640 medium. HDAC inhibitors and/or other agents were added in concentrations as indicated for each study to the cultures and cell cultured for times indicated. Cells were harvested by scrapping, washed once with PBS, lyzed with histone extraction buffer (1 ml/10^7 cells), which contains 10 mM MgCl2, 10 mM Tris, 25 mM KCl, 1% Triton X-100, 8.6% sucrose and protease inhibitor cocktail (Roche Diagnostics Gmbh, Indianapolis, Ind.), pH 6.5. Cells were centrifuged at 600 g at 4° C. for 5 mins. The supernatants were saved as cell lyates. The pellets (nuclei) were washed once with TE buffer, suspended in 0.4 NH2SO4 (100 μl/10^7 cells), incubated for 1 hr on ice, and centrifuged at 10,000 g for 10 mins at 4° C. The supernatant was collected, mixed with 1 ml acetone, incubated at −20° C. for more than 1 hr, and centrifuged at 10,000 g for 10 mins at 4° C. The pellets were suspended in water (100 μl/10^7 cells). The protein concentrations were measured with Braford reagent (Bio-Rad, Hercules, Calif.).
1×10^6 cells in a 10 cm diameter cell culture dish were washed with PBS, harvested by trypsinization in 0.05% trypsin for LNCaP and 0.25% trypsin for MCF7, A549, HFS and WI38 resuspended in RIPA at 50 μl for every 1×10^6 cells. Antibodies used were: anti-acetylated tubulin (Sigma), anti-HDAC 6 (Santa Cruz Biotechnology), and anti-tubulin (Calbiochem), (Xu et al. Cancer Research, 65:7832-7839, 2005).

In experiment [5] the test system is LNCaP cells. The experiment is described as follows: Quantitative real-time PCR in LNCaP cells. Format: cell-based, human. Particulars: quantitative real-time PCR. The protocol: […] of total RNA was reverse-transcribed using the Thermoscript RT-PCR system (Invitrogen) at 52° C. for 1 h. 20 ng of resultant cDNA was used in a Q-PCR reaction using an 7500 Real-Time PCR System (Applied Biosystems) using predesigned primers for DDIT3, DDIT4, Mcm4, Mcm6, Cdt1, Psf2 and GAPDH (Applied Biosystems). Amplification was carried for 40 cycles (95° C. for 15 sec, 60° C. for 1 min). To calculate the efficiency of the PCR reaction, and to assess the sensitivity of each assay, we performed a 6 point standard curve (5, 1.7, 0.56, 0.19, 0.062, and 0.021 ng). Triplicate CT values were averaged, amounts of target were interpolated from the standard curves and normalized to GAPDH (assay Hs99999909_m1).

A further experiment has as its system HFS cells. The experiment can be described thus: Cell viability, normal human foreskin cells (HFS). Format: cell-based. Particulars: 8 μM tubacin, 5 μM SAHA, alone or together.
For experiment [6], the system named is LNCaP cells. The experiment can be described thus: Cell growth and viability by trypan blue exclusion, LNCaP.
Experimental: (§1) 5×10^4 cells were seeded per well in a 24-well plate and cultured overnight prior to treating with the compound and/or other agents as indicated for each study. Cells were harvested at 24, 48 and 72 hrs after treatment by trypsin digestion. […] At least three independent analyses were performed for each time point.
(§2) To monitor cell growth and viability, cells were seeded in triplicate at 5×10^4 cells in 1 ml of medium in 24-well plates. The drugs were added at the indicated concentrations 24 h after seeding. Cells were harvested by trypsin digestion at 24 h, 48 h and 72 h following drug additions. Cell number and viability were determined by trypan blue exclusion.
Another experiment has as its system WI38 cells. The experiment is described as follows: Cell viability, normal human embryonic fibroblast WI38. The experiment is classed as cell-based. Particulars: 8 μM tubacin, 5 μM SAHA, alone or together.
Experiment [7] concerns acetylated tubulin and acetylated histone H3 in A549 cells. To be noted: 24 hrs, tubacin 0.2, 2 or 20 μM; cited from earlier work.
The target of another experiment is recombinant human HDAC1 (Homo sapiens, UniProt Q13547). The experiment is described as follows: In vitro HDAC assay with fluorogenic substrate, HDAC 1.
recombinant human HDAC1, sequence (Q13547 whole entry): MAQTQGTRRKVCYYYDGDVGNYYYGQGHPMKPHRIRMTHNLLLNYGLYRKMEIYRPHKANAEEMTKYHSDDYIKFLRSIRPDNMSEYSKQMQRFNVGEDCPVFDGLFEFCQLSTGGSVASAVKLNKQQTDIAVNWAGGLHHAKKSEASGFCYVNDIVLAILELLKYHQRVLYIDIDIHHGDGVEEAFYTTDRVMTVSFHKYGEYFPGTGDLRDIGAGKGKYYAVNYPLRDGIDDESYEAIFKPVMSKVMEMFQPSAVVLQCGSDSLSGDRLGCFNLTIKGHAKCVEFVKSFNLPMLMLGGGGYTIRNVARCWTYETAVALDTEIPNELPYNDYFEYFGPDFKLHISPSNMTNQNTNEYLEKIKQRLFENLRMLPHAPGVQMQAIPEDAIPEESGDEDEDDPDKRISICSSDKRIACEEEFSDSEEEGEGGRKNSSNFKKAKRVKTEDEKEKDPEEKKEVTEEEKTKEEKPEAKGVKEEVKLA
The target in another experiment is T1, recombinant human HDAC 6 (Homo sapiens, UniProt Q9UBN7).
T1 sequence (Q9UBN7 1-1215): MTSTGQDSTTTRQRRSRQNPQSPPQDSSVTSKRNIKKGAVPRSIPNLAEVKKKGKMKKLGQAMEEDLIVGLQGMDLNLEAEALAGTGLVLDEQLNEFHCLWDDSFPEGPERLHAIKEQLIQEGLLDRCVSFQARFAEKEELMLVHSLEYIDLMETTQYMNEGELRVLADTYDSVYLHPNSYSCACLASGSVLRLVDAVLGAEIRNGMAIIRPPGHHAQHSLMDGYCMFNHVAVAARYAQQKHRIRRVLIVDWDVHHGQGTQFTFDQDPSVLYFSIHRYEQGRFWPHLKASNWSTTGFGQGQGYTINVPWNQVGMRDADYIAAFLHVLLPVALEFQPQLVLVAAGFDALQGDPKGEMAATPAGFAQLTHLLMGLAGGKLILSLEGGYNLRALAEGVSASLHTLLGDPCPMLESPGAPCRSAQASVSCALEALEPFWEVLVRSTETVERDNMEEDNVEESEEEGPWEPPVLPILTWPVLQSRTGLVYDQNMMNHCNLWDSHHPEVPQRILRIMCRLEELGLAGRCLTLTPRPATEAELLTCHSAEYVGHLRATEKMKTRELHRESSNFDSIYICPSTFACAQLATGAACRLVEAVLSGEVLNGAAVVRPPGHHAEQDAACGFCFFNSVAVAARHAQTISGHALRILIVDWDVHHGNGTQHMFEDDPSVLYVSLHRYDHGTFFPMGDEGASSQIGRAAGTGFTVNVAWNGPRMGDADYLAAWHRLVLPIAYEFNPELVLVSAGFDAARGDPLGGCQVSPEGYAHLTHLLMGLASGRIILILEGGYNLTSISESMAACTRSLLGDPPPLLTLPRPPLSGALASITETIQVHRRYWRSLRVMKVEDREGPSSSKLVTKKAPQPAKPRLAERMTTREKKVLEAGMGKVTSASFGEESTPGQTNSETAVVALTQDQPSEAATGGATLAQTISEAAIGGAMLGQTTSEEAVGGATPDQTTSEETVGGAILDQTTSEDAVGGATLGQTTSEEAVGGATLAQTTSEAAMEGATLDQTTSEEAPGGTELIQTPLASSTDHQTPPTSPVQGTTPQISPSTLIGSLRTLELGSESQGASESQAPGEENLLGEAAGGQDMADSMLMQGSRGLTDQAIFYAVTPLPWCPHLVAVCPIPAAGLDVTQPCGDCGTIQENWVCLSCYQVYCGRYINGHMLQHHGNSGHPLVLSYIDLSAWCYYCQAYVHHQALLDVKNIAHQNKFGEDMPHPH
The experiment can be described thus: In vitro HDAC assay with fluorogenic substrate, HDAC 6.

Where [8] appears, read: LNCaP, 25 μM or 50 μM SAHA, 72 hrs.

A value given as a limit tells only on which side of the number the result lay.

Experimental for HFS cells: as §1, §2
Experimental for MCF-7 cells: as §1, §2
Experimental for PARP: (§3) 1×10^6 cells were seeded in a 10 cm diameter cell culture dish and cultured overnight prior to addition of the indicated drugs, washed with PBS, harvested by trypsinisation and lysed in RIPA buffer (50 mM Tris-HCL pH8.0, 120 mM NaCl, 0.5 mM EDTA, 0.5% NP-40). […] Quantitation of western blots was performed using ImageJ.
Experimental for WI38 cells: as §1
Experimental for phospho-Chk2: as §3
Experimental for recombinant human HDAC 6: (§4) Inhibition of HDAC 1 and HDAC 6 were analyzed with a fluorogenic substrate according to manufacture's protocol (HDAC assay reagents were purchased from BPS Biosciences, San Diego, Calif.). 50 μl reaction mixture, which contains 1×HDAC assay buffer, 5 units of recombinant human HDAC1 or HDAC 6, 10 μM substrate 3 and 1 μl inhibitor in DMSO, was incubated at 37° C. for 1 hour. […] The fluorescence intensity was measured at excitation of 360 nm and emission of 460 nm with SpectraMax Gemini XS microplate reader (Molecular Devices, Sunny Calif.).
Experimental for recombinant human HDAC1: as §4
Experimental for γH2AX: as §3

With `O=C(CCCCCCC(=O)Nc1ccccc1)NO` [SAHA, Suberoylanilide Hydroxamic Acid], the cell death in experiment [1] (2.5 μM SAHA) is 25%; in experiment [1] (5.0 μM SAHA), 80%; in the experiment on MCF-7 cells, 40%; in the experiment on HFS cells, “did not cause cell death”; in the experiment with LNCaP cells [6] (LNCaP, 1.25 μM SAHA, alone or plus 1 μM BAHA, 72 hrs), “no detectable cell death”; in the experiment on LNCaP cells [6] (LNCaP, 2.5 μM SAHA, alone or plus 1 μM BAHA, 72 hrs) it was “less than 10%”. For the same compound, the cell death entry in the experiment on LNCaP cells [6] (LNCaP, 2.5 μM SAHA, alone or with 8 μM tubacin, 72 hrs) is “no detectable”; in the experiment with LNCaP cells [6] (LNCaP, 5 μM SAHA, alone or plus 1 μM BAHA, 72 hrs), 65%; with LNCaP cells [6] (LNCaP, 5 μM SAHA, alone or with 8 μM tubacin, 72 hrs) it was 45%; in the experiment on LNCaP cells [6] (setting [8]), 100%; in the experiment on LNCaP cells [6] (LNCaP, […] SAHA, alone or plus 8 μM tubacin, after 8 hrs), 40%; in the experiment with LNCaP cells [6] (wild type LNCaP, 2.5 μM SAHA, 72 hrs (knockdown comparison)), “no cell death”. Also, the cell death is reported as 35% in the experiment on LNCaP cells [6] (wild type LNCaP, 5.0 μM SAHA, 72 hrs (knockdown comparison)) and “did not cause cell death” with WI38 cells. The “accumulation of γH2AX” value in the experiment with γH2AX is “increased”. The “DDIT3 gene expression change” value in the experiment with LNCaP cells [2] (2 h) is reported as 2.18 fold. Moreover, the “DDIT4 gene expression change” value is reported as “* (No detectable change of ≧2-fold)” in the experiment on LNCaP cells [2] (2 h), 5.36 fold in the experiment on LNCaP cells [2] (8 h) and 3.81 fold in the experiment with LNCaP cells [2] (24 h). Moreover, the Total gene number in the experiment on LNCaP cells [2] (2 h, genes changed ≧2-fold) is listed as 37; with LNCaP cells [2] (8 h, ≧2-fold) it was 628; in the experiment with LNCaP cells [2] (24 h, ≧2-fold), 1951. The Downregulated genes is recorded as 16 with LNCaP cells [2] (2 h, ≧2-fold); 302 with LNCaP cells [2] (8 h, ≧2-fold); 989 in the experiment with LNCaP cells [2] (24 h, ≧2-fold). The Upregulated genes in the experiment on LNCaP cells [2] (2 h, ≧2-fold) amounted to 21; in the experiment on LNCaP cells [2] (8 h, ≧2-fold), 326; in the experiment with LNCaP cells [2] (24 h, ≧2-fold), 962. For the same compound, the “rate of cell growth” value in the experiment with MCF-7 cells is on record as “markedly decreased”; with LNCaP cells [6] (LNCaP, 2.5, 5 or […] SAHA, alone or plus 8 μM tubacin), “markedly decreased”. Besides, in the experiment with LNCaP cells [3], the cell cycle distribution result is “increase in both G1 and G2 arrested cells”. Moreover, the PARP cleavage result with PARP (2.5 mM SAHA) was “did not result in PARE cleavage”; in the experiment with PARP (5 mM SAHA), “resulted in PARP cleavage”. Also, the “level of phospho-Chk2” value in the experiment with phospho-Chk2 is reported as “increase of phospho-Chk2”. Further, the “accumulation of acetylated histone H3” value in experiment [4] is “caused an increase in accumulation”. In addition, in experiment [4], the “accumulation of acetylated α-tubulin” value is reported as “caused an increase in accumulation”. In addition, the “expression of Mcm4, Mcm6, Cdt1 and Psf2” value in the experiment on LNCaP cells [5] is on record as “downregulated”. For the same compound, the cell growth result in the experiment with LNCaP cells [6] (setting [8]) is reported as “growth inhibition”.

`O=C(O)CCCCCCC(=O)Nc1ccc([C@H]2O[C@@H](CSc3nc(-c4ccccc4)c(-c4ccccc4)o3)C[C@@H](c3ccc(CO)cc3)O2)cc1` [niltubacin]: in experiment [7], the “accumulation of acetylated histone H3” value was “did not induce accumulation”. For the same compound, in experiment [7], the “accumulation of acetylated tubulin” value was “did not induce the accumulation”. Further, the IC50 at recombinant human HDAC1 and on recombinant human HDAC 6 was over 100 nM throughout. The “effect on cell growth or cell viability” value with LNCaP cells [6] (LNCaP, 8 μM nil-tubacin alone) is reported as “did not have a detectable effect”.
